{"source": "ChEMBL document CHEMBL5728687", "about": "“Diazabicyclic substituted imidazopyrimidines and their use for the treatment of breathing disorders” (2021)", "molecular_target": "Potassium channel subfamily K member 9 (Homo sapiens, UniProt Q9NPC2)", "sequence (Q9NPC2 whole entry)": "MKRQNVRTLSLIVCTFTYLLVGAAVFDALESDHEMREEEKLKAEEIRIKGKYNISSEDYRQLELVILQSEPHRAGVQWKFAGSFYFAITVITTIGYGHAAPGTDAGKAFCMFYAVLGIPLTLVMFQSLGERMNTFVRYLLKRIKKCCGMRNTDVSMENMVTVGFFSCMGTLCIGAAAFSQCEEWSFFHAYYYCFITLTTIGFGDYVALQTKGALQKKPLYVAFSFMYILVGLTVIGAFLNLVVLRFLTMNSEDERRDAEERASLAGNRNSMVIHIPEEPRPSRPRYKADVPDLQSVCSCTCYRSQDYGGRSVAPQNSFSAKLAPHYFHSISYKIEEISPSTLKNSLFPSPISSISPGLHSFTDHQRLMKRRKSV", "assay": "Inhibition of Recombinant TASK-1 and TASK-3 In Vitro: The investigations on the inhibition of the recombinant TASK-1 and TASK-3 channels were conducted using stably transfected CHO cells. The compounds according to the invention were tested in this case by application of 40 mM potassium chloride in the presence of a voltage-sensitive dye according to the method described in detail in the following references [Whiteaker et al., Validation of FLIPR membrane potential dye for high-throughput screening of potassium channel modulators, J. Biomol. Screen. 6 (5), 305-312 (2001); Molecular Devices FLIPR Application Note: Measuring membrane potential using the FLIPR® membrane potential assay kit on Fluorometric Imaging Plate Reader (FLIPR®) systems, http://www.moleculardevices.com/reagents-supplies/assay-kits/ion-channels/flipr-membrane-potential-assay-kits]. The activity of the test substances was determined as their ability to inhibit a depolarization induced in the recombinant cells by 40 mM potassium chloride. The concentration which can block half of this depolarization is referred to as IC50.", "assay_type": "cell-based", "note": "pIC50: −log10 of the molar value."}
{"smiles": "CNc1cccc(C(=O)N2C3CCC2CN(Cc2c(-c4ccc(Cl)cc4)nc4ncccn24)C3)n1", "values": [{"measurement": "pIC50", "result": 5.82}]}
